The target of this assay is T1, Rec. human COMT (Homo sapiens, UniProt P21964).
T1 sequence (P21964 1-271): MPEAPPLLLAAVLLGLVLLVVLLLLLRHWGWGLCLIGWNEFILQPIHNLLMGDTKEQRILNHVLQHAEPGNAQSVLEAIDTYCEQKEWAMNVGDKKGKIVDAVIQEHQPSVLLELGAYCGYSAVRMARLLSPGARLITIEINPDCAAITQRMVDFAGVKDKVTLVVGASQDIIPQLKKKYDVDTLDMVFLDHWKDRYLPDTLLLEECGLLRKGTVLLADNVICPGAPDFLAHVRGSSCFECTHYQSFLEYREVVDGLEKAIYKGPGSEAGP
Description: COMT-Fluorescence Assay. Format: biochemical. Conditions: rec. human COMT 25 nM, 4-Nitrocatechol-Alexa488 200 nM, SAM 500 nM. As to the method:
This intramolecular interaction is disturbed if the 4-Nitrocatechol is methylated. […] This increase of fluorescence intensity can be followed in a kinetic measurement. The slope in the linear range of the kinetic is calculated. An inhibitor compound decreases the slope.
Signal [rfu/min]=(rfu(end-point)−rfu(startpoint))/incubation_time_#2

Where [1] appears, read: COMT-fluorescence assay, read-out: IC50.

Counter-ions that a name gives are not always drawn. Like-named read-outs stand apart in the source and are kept apart here.

As for `N#Cc1ccccc1-c1cc(O)c2nc[nH]c(=O)c2c1` [Example 207, 2-(8-Hydroxy-4-oxo-3,4-dihydroquinazolin-6-yl)benzonitrile], the concentration for half-maximal inhibition (IC50) under setting [1] turned out to be 20 nM.

With `O=c1[nH]cnc2c(O)cc(-c3cccc4ccccc34)cc12` [Example 170, 8-Hydroxy-6-(naphthalen-1-yl)quinazolin-4(3H)-one], under setting [1], the IC50 turned out to be 20 nM.

Take `CS(=O)(=O)c1cccc(-c2c(-c3ccc(F)cc3)cc(O)c3nc[nH]c(=O)c23)c1` [Example 52, 6-(4-Fluorophenyl)-8-hydroxy-5-(3-(methylsulfonyl)phenyl)quinazolin-4(3H)-one]: the IC50 under setting [1] came out at 10 nM.

For `CN(C)CCOCc1ccccc1-c1cc(O)c2nc[nH]c(=O)c2c1` [Example 241, 6-(2-((2-(Dimethylamino)ethoxy)methyl)phenyl)-8-hydroxyquinazolin-4(3H)-one], under setting [1], the IC50 was 30 nM.

Take `O=c1[nH]cnc2c(O)cc(-c3ccc(F)cc3)c(-c3ccccc3)c12` [Example 49, 6-(4-Fluorophenyl)-8-hydroxy-5-phenylquinazolin-4(3H)-one]: the IC50 under setting [1] amounted to 20 nM.

`Cc1ccc(/C=C/c2cc(O)c3nc[nH]c(=O)c3c2)cc1` [Example 21, (E)-8-Hydroxy-6-(4-methylstyryl)quinazolin-4(3H)-one]: the IC50 under setting [1] is 100 nM.

On to `O=c1[nH]cnc2c(O)cc(-c3ccc(Br)nc3)cc12` [Example 144, 6-(6-Bromo-pyridin-3-yl)-8-hydroxy-3H-quinazolin-4-one], for which, under setting [1], the half-maximal inhibitory concentration (IC50) came out at 50 nM.

As for `Cc1cc(-c2cc(O)c3nc[nH]c(=O)c3c2)ccn1` [Example 134, 8-Hydroxy-6-(2-methylpyridin-4-yl)quinazolin-4(3H)-one], under setting [1], the IC50 came to 10 nM.

As for `O=c1[nH]cnc2c(O)cc(-c3cccc(N4CCOCC4)n3)cc12` [Example 62, 8-Hydroxy-6-(6-morpholinopyridin-2-yl)quinazolin-4(3H)-one], the half-inhibitory concentration (IC50) under setting [1] amounted to 10 nM.

On to `O=c1[nH]cnc2c(O)cc(-c3ccccc3Oc3ccccc3)cc12` [Example 222, 8-Hydroxy-6-(2-phenoxyphenyl)quinazolin-4(3H)-one], for which the IC50 under setting [1] is 60 nM.

Take `O=c1[nH]cnc2c(O)cc(-c3cnsc3)cc12` [Example 92, 8-Hydroxy-6-(isothiazol-4-yl)quinazolin-4(3H)-one]: the IC50 under setting [1] is 60 nM.

Turning to `O=c1[nH]cnc2c(O)cc(-c3cncs3)cc12` [Example 90, 8-Hydroxy-6-(thiazol-5-yl)quinazolin-4(3H)-one], under setting [1], the IC50 was 20 nM.

For `O=c1[nH]cnc2c(O)ccc(Cl)c12` [Example 143, 5-Chloro-8-hydroxyquinazolin-4(3H)-one], under setting [1], the half-maximal inhibitory concentration (IC50) was found to be 810 nM.

Take `O=c1[nH]cnc2c(O)cc(-c3ccc(-n4cccn4)cc3)cc12` [Example 141, 8-Hydroxy-6-(4-pyrazol-1-yl-phenyl)-3H-quinazolin-4-one]: the half-inhibitory concentration (IC50) (IC50, COMT-fluorescence assay) was 10 nM.

For the compound `O=c1[nH]cnc2c(O)cc(C3CCOCC3)cc12` [Example 69, 8-Hydroxy-6-(tetrahydro-2H-pyran-4-yl)quinazolin-4(3H)-one 2,2,2-trifluoroacetate], the IC50 under setting [1] is 1040 nM.

For the compound `Cn1cc(-c2cc(O)c3nc[nH]c(=O)c3c2)c(C(F)(F)F)n1` [Example 82, 8-Hydroxy-6-(1-methyl-3-(trifluoromethyl)-1H-pyrazol-4-yl)quinazolin-4(3H)-one], the IC50 under setting [1] is 40 nM.

As to `O=c1[nH]cnc2c(O)cc(-c3ccc(N4CCOCC4)nc3)cc12` [Example 182, 8-Hydroxy-6-(6-morpholinopyridin-3-yl)quinazolin-4(3H)-one], under setting [1], the IC50 stood at 30 nM.

For `CN1CCN(S(=O)(=O)c2cccc(-c3cc(O)c4nc[nH]c(=O)c4c3)c2)CC1` [Example 111, 8-Hydroxy-6-[3-(4-methyl-piperazine-1-sulfonyl)-phenyl]-3#H!-quinazolin-4-one; compound with trifluoro-acetic acid], the IC50 under setting [1] turned out to be 20 nM.

On to `O=c1[nH]cnc2c(O)cc(-c3ccc(F)cc3)c([N+](=O)[O-])c12` [Example 252, 6-(4-Fluoro-phenyl)-8-hydroxy-5-nitro-3H-quinazolin-4-one], for which the IC50 under setting [1] turned out to be 30 nM.

Regarding `Nc1c(-c2ccc(F)cc2)cc(O)c2nc[nH]c(=O)c12` [Example 253, 5-Amino-6-(4-fluorophenyl)-8-hydroxyquinazolin-4(3H)-one hydrobromide], under setting [1], the IC50 was 100 nM.

Consider `Cc1nc(-c2ccccc2)sc1-c1cc(O)c2nc[nH]c(=O)c2c1` [Example 203, 8-Hydroxy-6-(4-methyl-2-phenylthiazol-5-yl)quinazolin-4(3H)-one], for which the IC50 under setting [1] came to 10 nM.

Turning to `Cc1ncc(-c2cc(O)c3nc[nH]c(=O)c3c2)n1C` [Example 87, 6-(1,2-Dimethyl-1H-imidazol-5-yl)-8-hydroxyquinazolin-4(3H)-one], under setting [1], the IC50 worked out at 230 nM.

With `CN(C)c1ccc(-c2cc(O)c3nc[nH]c(=O)c3c2)cn1` [Example 60, 6-(6-(Dimethylamino)pyridin-3-yl)-8-hydroxyquinazolin-4(3H)-one 1:1 salt with trifluoroacetate], the IC50 under setting [1] turned out to be 20 nM.

Consider `COCc1ccccc1-c1cc(O)c2nc[nH]c(=O)c2c1` [Example 220, 8-Hydroxy-6-(2-(methoxymethyl)phenyl)quinazolin-4(3H)-one], for which the IC50 under setting [1] was 20 nM.

With `Cc1cc(-c2c(Br)cc(O)c3nc[nH]c(=O)c23)ccn1` [Example 105, 6-Bromo-8-hydroxy-5-(2-methylpyridin-4-yl)quinazolin-4(3H)-one], the half-maximal inhibitory concentration (IC50) under setting [1] stood at 70 nM.

For `O=c1[nH]cnc2c(O)cc(-c3ccccc3Cc3ccccc3)cc12` [Example 98, 6-(2-Benzylphenyl)-8-hydroxyquinazolin-4(3H)-one], the IC50 under setting [1] amounted to 40 nM.

Regarding `CCOc1ccccc1-c1cc(O)c2nc[nH]c(=O)c2c1` [Example 225, 6-(2-Ethoxyphenyl)-8-hydroxyquinazolin-4(3H)-one], the IC50 under setting [1] amounted to 60 nM.

`Cc1nnc(-c2cc(O)c3nc[nH]c(=O)c3c2)s1` [Example 83, 8-Hydroxy-6-(5-methyl-1,3,4-thiadiazol-2-yl)quinazolin-4(3H)-one]: under setting [1], the IC50 turned out to be 60 nM.

As for `O=C(c1ccccc1-c1cc(O)c2nc[nH]c(=O)c2c1)N1CCS(=O)(=O)CC1` [Example 194, 6-[2-(1,1-Dioxo-1λ^6-thiomorpholine-4-carbonyl)-phenyl]-8-hydroxy-3H-quinazolin-4-one], under setting [1], the IC50 came out at 730 nM.

For the setting “IC50, COMT-fluorescence assay”, `O=c1[nH]cnc2c(O)cc(-c3ccccc3Cl)cc12` [Example 132, 6-(2-Chlorophenyl)-8-hydroxyquinazolin-4(3H)-one] gave an IC50 of 20 nM.

`Cc1ccc(-c2cc(O)c3nc[nH]c(=O)c3c2)cc1` [Example 130, 8-Hydroxy-6-p-tolylquinazolin-4(3H)-one] gave an IC50 (IC50, COMT-fluorescence assay) of 30 nM.

Consider `CN1CCN(CCOCc2ccccc2-c2cc(O)c3nc[nH]c(=O)c3c2)CC1` [Example 240, 8-Hydroxy-6-(2-((2-(4-methylpiperazin-1-yl)ethoxy)methyl)phenyl)quinazolin-4(3H)-one], for which the IC50 under setting [1] is 30 nM.

In the case of `O=c1[nH]cnc2c(O)cc(-c3ccc4ccccc4c3)cc12` [Example 169, 8-Hydroxy-6-(naphthalen-2-yl)quinazolin-4(3H)-one], under setting [1], the IC50 is 40 nM.

Regarding `Cc1ccc(-c2c(-c3ccc(F)cc3)cc(O)c3nc[nH]c(=O)c23)cc1` [Example 50, 6-(4-Fluorophenyl)-8-hydroxy-5-p-tolylquinazolin-4(3H)-one], under setting [1], the IC50 was 10 nM.
